Assay results reported in patent US10533010B2, “Substituted indole Mcl-1 inhibitors” (Vanderbilt University, priority 2014, dated 2020).

Target: recombinant Mcl-1 (residues 172-327) (Homo sapiens (Human), UniProt Q07820)
Assay: Fluorescence polarization anisotropy competition assay (FITC-Bak or FITC-Bim BH3 peptide) with Mcl-1
Assay type: binding
Conditions: Table 2; Ki bins given in nM; FITC-Bak or FITC-Bim peptide competition; Ki converted from IC50; read-out: Ki for Inhibition of Mcl-1

Sequence of recombinant Mcl-1 (residues 172-327) (Q07820 172-327): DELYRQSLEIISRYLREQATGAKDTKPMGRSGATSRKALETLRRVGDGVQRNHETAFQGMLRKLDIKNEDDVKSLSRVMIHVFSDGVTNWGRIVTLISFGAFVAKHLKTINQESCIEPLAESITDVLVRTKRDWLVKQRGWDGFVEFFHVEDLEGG

| Compound | Ki |
| --- | --- |
| Cc1cc(OCCCc2c3n(c4c(-c5c(C)nn(C)c5C)cccc24)CCCN(Cc2cc(C(=O)O)cc(N4CCCC4)c2)C3=O)cc(C)c1Cl [I-84, 3-((11-(3-(4-chloro-3,5-dimethylphenoxy)propyl)-1-oxo-7-(1,3,5-trimethyl-1H-pyrazol-4-yl)-4,5-dihydro-1H-[1,4]diazepino[1,2-a]indol-2(3H)-yl)methyl)-5-(pyrrolidin-1-yl)benzoic acid] | 101 to 299 nM |
| Cc1cc(OCCCc2c3n(c4c(-c5c(C)nn(C)c5C)c(Cl)ccc24)CCCN(Cc2cc(NCCC(C)C)cc(C(=O)O)c2)C3=O)cc(C)c1Cl [I-328, 3-((8-chloro-11-(3-(4-chloro-3,5-dimethylphenoxy)propyl)-1-oxo-7-(1,3,5-trimethyl-1H-pyrazol-4-yl)-4,5-dihydro-1H-[1,4]diazepino[1,2-a]indol-2(3H)-yl)methyl)-5-(isopentylamino)benzoic acid] | < 50 nM |
| Cc1cc(OCCCc2c3n(c4c(-c5c(C)nn(C)c5C)c(Cl)ccc24)C(C)CN(Cc2ccc(C(=O)O)o2)C3=O)cc(C)c1Cl (centres unmarked) [I-128, 5-((7-chloro-10-(3-(4-chloro-3,5-dimethylphenoxy)propyl)-4-methyl-1-oxo-6-(1,3,5-trimethyl-1H-pyrazol-4-yl)-3,4-dihydropyrazino[1,2-a]indol-2(1H)-yl)methyl)furan-2-carboxylic acid] | < 50 nM |
| Cc1cc(OCCCc2c3n(c4c(-c5c(C)nn(C)c5C)c(Cl)ccc24)CCCN(Cc2cc(C(=O)O)cc(-c4ccc(O)cc4)c2)C3=O)cc(C)c1Cl [I-306, 5-((8-chloro-1-(3-(4-chloro-3,5-dimethylphenoxy)propyl)-1-oxo-7-(1,3,5-trimethyl-1H-pyrazol-4-yl)-4,5-dihydro-1H-[1,4]diazepino[1,2-a]indol-2(3H)-yl)methyl)-4′-hydroxy-[1,1′-biphenyl]-3-carboxylic acid] | < 50 nM |
| CC/N=C(/NCCCN(C)C)n1nc(C)c(-c2cccc3c(CCCOc4cc(C)c(Cl)c(C)c4)c(C(=O)NCc4cccc(C(=O)O)c4)[nH]c23)c1C [I-70, 3-((3-(3-(4-chloro-3,5-dimethylphenoxy)propyl)-7-(1-(N-(3-(dimethylamino)propyl)-N′-ethylcarbamimidoyl)-3,5-dimethyl-1H-pyrazol-4-yl)-1H-indole-2-carboxamido)methyl)benzoic acid] | 51 to 100 nM |
| CCOC(=O)c1ccc(CNC(=O)c2c(CCCOc3cc(C)c(Cl)c(C)c3)c3cccc(-c4c(C)nn(C)c4C)c3n2C)o1 [I-65, ethyl 5-((3-(3-(4-chloro-3,5-dimethylphenoxy)propyl)-1-methyl-7-(1,3,5-trimethyl-1H-pyrazol-4-yl)-1H-indole-2-carboxamido)methyl)furan-2-carboxylate] | 301 to 500 nM |
| Cc1ccc(N2CCCn3c(c(CCCOc4cc(C)c(Cl)c(C)c4)c4ccc(Cl)c(-c5c(C)nn(C)c5C)c43)C2=O)cc1C(=O)O [I-98, 5-(8-chloro-11-(3-(4-chloro-3,5-dimethylphenoxy)propyl)-1-oxo-7-(1,3,5-trimethyl-1H-pyrazol-4-yl)-4,5-dihydro-1H-[1,4]diazepino[1,2-a]indol-2(3H)-yl)-2-methylbenzoic acid] | < 50 nM |
| Cc1cc(OCCCc2c3n(c4c(-c5c(C)nn(C)c5C)cccc24)CCCN(Cc2ccc(N4CCCCC4)c(C(=O)O)c2)C3=O)cc(C)c1Cl [I-81, 5-((11-(3-(4-chloro-3,5-dimethylphenoxy)propyl)-1-oxo-7-(1,3,5-trimethyl-1H-pyrazol-4-yl)-4,5-dihydro-1H-[1,4]diazepino[1,2-a]indol-2(3H)-yl)methyl)-2-(piperidin-1-yl)benzoic acid] | 51 to 100 nM |
| COC(=O)c1cccc(CNC(=O)c2[nH]c3c(-c4c(C)n[nH]c4C)cccc3c2CCCOc2cc(C)c(Cl)c(C)c2)c1 [I-25, methyl 3-((3-(3-(4-chloro-3,5-dimethylphenoxy)propyl)-7-(3,5-dimethyl-1H-pyrazol-4-yl)-1H-indole-2-carboxamido)methyl)benzoate] | 301 to 500 nM |

Second part, the compound after the results:

| Ki | Compound |
| --- | --- |
| < 50 nM | Cc1cc(OCCCc2c3n(c4c(-c5c(C)nn(C)c5C)c(Cl)ccc24)CCCN(c2cccc(C(=O)NS(C)(=O)=O)c2)C3=O)cc(C)c1Cl [I-368, 3-(8-chloro-11-(3-(4-chloro-3,5-dimethylphenoxy)propyl)-1-oxo-7-(1,3,5-trimethyl-1H-pyrazol-4-yl)-4,5-dihydro-H-[1,4]diazepino[1,2-a]indol-2(3H)-yl)-N-(methylsulfonyl)benzamide] |
| < 50 nM | Cc1cc(OCCCc2c(C(=O)N3CCC(C(=O)O)C3)[nH]c3c(-c4c(C)nn(C)c4C)c(Cl)ccc23)cc(C)c1Cl (centres unmarked) [I-336, 1-(6-chloro-3-(3-(4-chloro-3,5-dimethylphenoxy)propyl)-7-(1,3,5-trimethyl-1H-pyrazol-4-yl)-1H-indole-2-carbonyl)pyrrolidine-3-carboxylic acid] |
| < 50 nM | Cc1cc(OCCCc2c3n(c4c(-c5c(C)nn(C)c5C)c(Cl)ccc24)C[C@H](C)N(Cc2ccc(C(=O)O)cc2)C3=O)cc(C)c1Cl [I-139, (S)-4-((7-chloro-10-(3-(4-chloro-3,5-dimethylphenoxy)propyl)-3-methyl-1-oxo-6-(1,3,5-trimethyl-1H-pyrazol-4-yl)-3,4-dihydropyrazino[1,2-a]indol-2(1H)-yl)methyl)benzoic acid] |
| < 50 nM | CCn1ccc2c(N3CCCn4c(c(CCCOc5cc(C)c(Cl)c(C)c5)c5ccc(Cl)c(-c6c(C)nn(C)c6C)c54)C3=O)cc(C(=O)O)cc21 [I-249, 4-(8-chloro-11-(3-(4-chloro-3,5-dimethylphenoxy)propyl)-1-oxo-7-(1,3,5-trimethyl-1H-pyrazol-4-yl)-4,5-dihydro-1H-[1,4]diazepino[1,2-a]indol-2(3H)-yl)-1-ethyl-1H-indole-6-carboxylic acid] |
| < 50 nM | Cc1cc(OCCCc2c3n(c4c(-c5c(C)nn(C)c5C)c(Cl)ccc24)CCCN(c2cc(C(=O)O)c4cnn(C)c4c2)C3=O)cc(C)c1Cl [I-367, 6-(8-chloro-11-(3-(4-chloro-3,5-dimethylphenoxy)propyl)-1-oxo-7-(1,3,5-trimethyl-1H-pyrazol-4-yl)-4,5-dihydro-1H-[1,4]diazepino[1,2-a]indol-2(3H)-yl)-1-methyl-1H-indazole-4-carboxylic acid] |
| < 50 nM | Cc1cc(OCCCc2c(C(=O)N[C@@H]3CCN(C(=O)C(=O)O)C3)[nH]c3c(-c4c(C)nn(C)c4C)c(Cl)ccc23)cc(C)c1Cl [I-326, (R)-2-(3-(6-chloro-3-(3-(4-chloro-3,5-dimethylphenoxy)propyl)-7-(1,3,5-trimethyl-1H-pyrazol-4-yl)-1H-indole-2-carboxamido)pyrrolidin-1-yl)-2-oxoacetic acid] |
| < 50 nM | Cc1cc(OCCCc2c(C(=O)Nc3cccc(C(=O)O)c3)[nH]c3c(-c4c(C)nn(CCN5CCOCC5)c4C)c(Cl)ccc23)cc(C)c1Cl [I-191, 3-(6-chloro-3-(3-(4-chloro-3,5-dimethylphenoxy)propyl)-7-(3,5-dimethyl-1-(2-morpholinoethyl)-1H-pyrazol-4-yl)-1H-indole-2-carboxamido)benzoic acid] |
| < 50 nM | Cc1cc(OCCCc2c3n(c4c(-c5c(C)nn(C)c5C)c(Cl)ccc24)CCCN(c2cc(CN4CCOCC4)cc(C(=O)O)c2)C3=O)cc(C)c1Cl [I-227, 3-(8-chloro-11-(3-(4-chloro-3,5-dimethylphenoxy)propyl)-1-oxo-7-(1,3,5-trimethyl-1H-pyrazol-4-yl)-4,5-dihydro-1H-[1,4]diazepino[1,2-a]indol-2(3H)-yl)-5-(morpholinomethyl)benzoic acid] |
| < 50 nM | Cc1cc(OCCCc2c3n(c4c(-c5c(C)nn(C)c5C)c(Cl)ccc24)C[C@@H](C)N(Cc2ccc(C(=O)O)cn2)C3=O)cc(C)c1Cl [I-122, (R)-6-((7-chloro-10-(3-(4-chloro-3,5-dimethylphenoxy)propyl)-3-methyl-1-oxo-6-(1,3,5-trimethyl-1H-pyrazol-4-yl)-3,4-dihydropyrazino[1,2-a]indol-2(1H)-yl)methyl)nicotinic acid] |
| < 50 nM | Cc1cc(OCCCc2c3n(c4c(-c5c(C)nn(C)c5C)c(Cl)ccc24)C(C)CN(Cc2ccc(C(=O)O)cc2)C3=O)cc(C)c1Cl (centres unmarked) [I-130, 4-((7-chloro-10-(3-(4-chloro-3,5-dimethylphenoxy)propyl)-4-methyl-1-oxo-6-(1,3,5-trimethyl-1H-pyrazol-4-yl)-3,4-dihydropyrazino[1,2-a]indol-2(1H)-yl)methyl)benzoic acid] |
| < 50 nM | Cc1cc(OCCCc2c3n(c4c(-c5c(C)nn(C)c5C)c(Cl)ccc24)CCCN(c2cc(CN4CCN(C)CC4)cc(C(=O)O)c2)C3=O)cc(C)c1Cl [I-228, 3-(8-chloro-11-(3-(4-chloro-3,5-dimethylphenoxy)propyl)-1-oxo-7-(1,3,5-trimethyl-1H-pyrazol-4-yl)-4,5-dihydro-1H-[1,4]diazepino[1,2-a]indol-2(3H)-yl)-5-((4-methylpiperazin-1-yl)methyl)benzoic acid] |
| < 50 nM | Cc1cc(OCCCc2c3n(c4c(-c5c(C)nn(C)c5C)c(Cl)ccc24)C[C@@H](C)N(c2cccc(C(=O)O)c2)C3=O)cc(C)c1Cl [I-157, (R)-3-(7-chloro-10-(3-(4-chloro-3,5-dimethylphenoxy)propyl)-3-methyl-1-oxo-6-(1,3,5-trimethyl-1H-pyrazol-4-yl)-3,4-dihydropyrazino[1,2-a]indol-2(1H)-yl)benzoic acid] |
| < 50 nM | Cc1cc(OCCCc2c3n(c4c(-c5c(C)nn(C)c5C)c(Cl)ccc24)CCCN(C[C@H]2CC[C@H](C(=O)O)CC2)C3=O)cc(C)c1Cl [I-371, (1r,4r)-4-((8-chloro-11-(3-(4-chloro-3,5-dimethylphenoxy)propyl)-1-oxo-7-(1,3,5-trimethyl-1H-pyrazol-4-yl)-4,5-dihydro-1H-[1,4]diazepino[1,2-a]indol-2(3H)-yl)methyl)cyclohexane-1-carboxylic acid] |
| < 50 nM | Cc1cc(OCCCc2c(C(=O)N[C@H]3CC[C@@H](C(=O)O)CC3)[nH]c3c(-c4c(C)nn(C)c4C)c(Cl)ccc23)cc(C)c1Cl [I-332, (1s,4s)-4-(6-chloro-3-(3-(4-chloro-3,5-dimethylphenoxy)propyl)-7-(1,3,5-trimethyl-1H-pyrazol-4-yl)-1H-indole-2-carboxamido)cyclohexane-1-carboxylic acid] |
